This passage reports GI50 results from patent US9132130B2, “Purine derivative and antitumor agent using same” (ZENYAKU KOGYO KABUSHIKI KAISHA, priority 2009, dated 2015).

The structures appear in SMILES notation. Bounds are passed on as bounds.

Holding throughout (format): cell-based
The subject of experiment [1] is PC-3 cells (human prostate cancer cells). The experiment in a line: in vitro antitumor activity test, PC-3 cells, XTT colorimetry. The settings on record: PC-3 human prostate cancer cells, cultured 72 hours. In short, it runs like this:
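PC-3 human prostate cancer cells, seeded at 2×10^4 cells/ml and allowed to adhere for 24 h, were exposed 72 h at 37° C, 5% CO2 to compound diluted in RPMI 1640 with 10% FBS to 2.0×10^−9 to 2.0×10^−4 M (pre-addition solutions). Growth was measured by XTT colorimetry and GI50 (μM) calculated.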
On the technique in general: Tetrazolium dyes change colour on reduction, which living cells bring about.

The test system of experiment [2] is P388 cells (mouse leukemia cells). Description: in vitro antitumor activity test, P388 cells, XTT colorimetry. The settings on record: cultured 72 hours. In short, it runs like this: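 Cells from DBA/2 mouse ascites, in RPMI 1640 with 10% FBS and 25 mM HEPES, seeded from a 4×10^4 cells/ml suspension. Equal volume added of compound solutions prepared at 2.0×10^−9 to 2.0×10^−4 M (pre-mixing). After 72 h at 37° C, 5% CO2, growth read by XTT; GI50 (μM) is the concentration giving 50% growth inhibition.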

In experiment [3] the test system is B16F10 cells (mouse melanoma [malignant melanoma] cells). The experiment in a line: in vitro antitumor activity test, B16F10 cells, XTT colorimetry. The settings on record: B16-F10, cultured 72 hours. Summed up:
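B16F10 mouse melanoma cells were seeded from a 1×10^4 cells/ml suspension and allowed to adhere for 24 h. Compounds in DMSO were diluted in RPMI 1640 with 10% FBS to 2.0×10^−9 to 2.0×10^−4 M and incubated 72 h at 37° C, 5% CO2. XTT colorimetry gave GI50 (μM).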

Experiment [4] deals with A549 cells (human lung cancer cells). The experiment in a line: in vitro antitumor activity test, A549 cells, XTT colorimetry. The settings on record: cultured 72 hours. Summed up:
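Cells seeded at 2×10^4 cells/ml in MEM + 10% FBS, 25 mM HEPES, kanamycin, allowed to adhere 24 h, then exposed to compounds (DMSO stocks diluted in RPMI 1640; prepared at 2.0×10^−9 to 2.0×10^−4 M) for 72 h at 37 °C, 5% CO2. Growth inhibition read by XTT colorimetry; GI50 (μM) calculated.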

In experiment [5] the test system is WiDr cells (human colon cancer cells). The experiment in a line: in vitro antitumor activity test, WiDr cells, XTT colorimetry. As to conditions: cultured 72 hours. Summed up:
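Human colon cancer cells in MEM/10% FBS were seeded 3×10^4 cells/ml and allowed to adhere for 24 h, then exposed to compounds prepared at 2.0×10^−9 to 2.0×10^−4 M in RPMI 1640 for 72 h at 37° C, 5% CO2. Growth was read by XTT colorimetry and GI50 (μM) calculated.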

As for `CCOc1ccc(CSc2nc(N3CCOCC3)c3nc(CC)n(C)c3n2)cc1` [Compound 17, 2-(4-ethoxybenzylsulfanyl)-8-ethyl-9-methyl-6-morpholino-9H-purine], the GI50 in experiment [1] was 460 nM; in experiment [2] it was 360 nM; in experiment [3] it was 1290 nM; in experiment [4] it was 760 nM; in experiment [5], 510 nM.
On the same counts, the results for `CCc1nc2c(N3CCOCC3)nc(SCc3ccc(I)cc3)nc2n1C` [Compound 49, 8-ethyl-2-(4-iodobenzylsulfanyl)-9-methyl-6-morpholino-9H-purine] are 460 nM, 290 nM, 1340 nM, 320 nM and 390 nM.
Consider `C=Cc1ccc(CSc2nc(N3CCOCC3)c3nc(CC)n(C)c3n2)cc1` [Compound 10, 8-ethyl-9-methyl-6-morpholino-2-(4-vinylbenzylsulfanyl)-9H-purine], for which the GI50 is 890 nM in experiment [1]; 1280 nM in experiment [2]; 1820 nM in experiment [3]; 1690 nM in experiment [4]; 1250 nM in experiment [5].
For `CCOc1ccc(CSc2nc(N3CCOCC3)c3nc(CC)n(CC)c3n2)cc1F` [Compound 117, 8,9-diethyl-2-(4-ethoxy-3-fluorobenzylsulfanyl)-6-morpholino-9H-purine], the GI50 in experiment [1] was determined as 310 nM; in experiment [2], 300 nM; in experiment [3] it was 370 nM; in experiment [4], 430 nM; in experiment [5] it was 290 nM.
In the case of `CCNc1nc(SCc2ccc(OC)c(C#N)c2)nc2c1ncn2C` [Compound 89, 2-(3-cyano-4-methoxybenzylsulfanyl)-6-ethylamino-9-methyl-9H-purine], the GI50 in experiment [1] worked out at 210 nM; in experiment [2], 110 nM; in experiment [3] it was 130 nM; in experiment [4] it was 150 nM; in experiment [5], 120 nM.
On the same counts, the results for `CCc1ccc(CSc2nc(N3CCOCC3)c3nc(CC)n(C)c3n2)cc1` [Compound 12, 8-ethyl-2-(4-ethylbenzylsulfanyl)-9-methyl-6-morpholino-9H-purine] are 850 nM, 1250 nM, 3910 nM, 1890 nM and 1240 nM.
On the same counts, the results for `CCc1nc2c(N(C)C)nc(SCc3ccc(OC)c(N)c3)nc2n1C` [Compound 23, 2-(3-amino-4-methoxybenzylsulfanyl)-6-dimethylamino-8-ethyl-9-methyl-9H-purine] are 130 nM, 230 nM, 500 nM, 250 nM and 440 nM.
On the same counts, the results for `CCc1nc2c(N3CCOCC3)nc(SCc3ccc(OC)cc3OCc3ccccc3)nc2n1C` [Compound 15, 2-(2-benzyloxy-4-methoxybenzylsulfanyl)-8-ethyl-9-methyl-6-morpholino-9H-purine] are 820 nM, 870 nM, 1800 nM, 2280 nM and 1160 nM.
`COc1ccc(CSc2nc(-c3ccco3)c3ncn(C)c3n2)cc1` [Compound 167, 6-(2-furyl)-2-(4-methoxybenzylsulfanyl)-9-methyl-9H-purine]: the GI50 in experiment [1] was determined as 1800 nM; in experiment [2], 1870 nM; in experiment [3], 2470 nM; in experiment [4], 1490 nM; in experiment [5], 1750 nM.
As for `COc1ccc(CSc2nc(N3C=COCC3)c3ncn(C)c3n2)cc1C#N` [Compound 153, 2-(3-cyano-4-methoxybenzylsulfanyl)-6-(2,3-dihydro-[1,4]oxadin-4-yl)-9-methyl-9H-purine], the concentration for 50% growth inhibition (GI50) in experiment [1], in experiment [2], in experiment [3], in experiment [4] and in experiment [5] was under 40 nM throughout.

By GI50 is commonly meant the concentration at which growth is held to half of that of the control. Read a high GI50 as less potent growth inhibition.
